The values that follow come from patent publication US6136803A, “Antidepressants” (Merrell Pharmaceuticals Inc., priority 1998, dated 2000).

The test system of this test is -adrenergic receptors (rat cerebral cortical membranes). To be noted: desipramine 5 mg/kg, i.p.; for [3H]-DHA Specifically Bound: six animals per group, mean ± SEM; for % Control ([3H]-DHA specifically bound): vs saline.

Molecules are shown by their SMILES. Like-named read-outs stand apart in the source and are kept apart here.

Experimental: The number of -adrenergic receptors in rat cerebral cortical membranes was measured after a 4 day and 14 day course of one of the following treatments:
a) saline control (intraperitoneal injection - i.p.)
c) fluoxetine (10 mg/kg/day, i.p.) or (10 mg/kg bid, i.p.)
Male Sprague-Dawley rats (175-200 g) were assigned randomly to one of the four treatment groups above and were treated as indicated for either 4 or 14 days. The animals were sacrificed 24 hours after their last treatment and cerebral cortical membranes were isolated. These membranes were assayed for -adrenergic receptor number by the method of Bylund and Snyder [Mol. Pharmacol. 12, 568 (1976)] by measuring the amount of [^3 H]dihydro-alprenolol ([^3 H]-DHA) bound.

As to `CNCCC(Oc1ccc(C(F)(F)F)cc1)c1ccccc1` (stereo not shown) [Fluoxetine, fluoxetine], the “[3H]-DHA Specifically Bound” value was 37.9 ± 1.8 fmol/mg protein (A) 14 days, fluoxetine 10 mg/kg, saline control 41.8 ± 1.4, * p<0.05 vs saline, + P<0.05 vs desipramine) and 51.8 ± 1.7 fmol/mg protein (B) 4 days, fluoxetine 10 mg/kg bid, saline control 54.6 ± 3.1, * p<0.05 vs saline). The “% Control ([3H]-DHA specifically bound)” value runs as follows: (A) 14 days, fluoxetine 10 mg/kg) 91 % Control; (B) 4 days, fluoxetine 10 mg/kg bid) 95 % Control.
